Measured values: US20240069010A1, “TISSUE ORGANOID BIOPRINTING AND HIGH-THROUGHPUT SCREENING METHODOLOGY” (priority 2020, published 2024)
Read-outs that look alike come from different tables or passages of the source.

Legend:
[1] = test system: MCF-7 organoids; experiment: Endpoint ATP-release assay (CellTiter-Glo) of organoid viability; assay type: cell-based; details: Homo sapiens, MCF7
Description: All drug treatments of 3D organoids were performed in serum-free conditions in MammoCult™ medium supplemented with 1% antibiotic-antimycotic (Gibco 15240-062). A detailed protocol for the drug screening has been published previously in Phan, N. et al. supra; and Nguyen, H. T. L. & Soragni, supra. Briefly, the culture medium was fully removed three days after seeding and replaced with 100 μL of MammoCult™ medium containing the indicated treatments using an automated pipetting system (EpMotion® 96). After treatment, we transferred the organoids to the HSLCI for imaging. Organoids were imaged by HSLCI between 6 hours and 48 hours after treatment. After imaging, we performed an ATP assay to assess cell viability in accordance with the manufacturer's instructions. The media was aspirated from each well and replaced with 50 μL of 5 mg/mL Dispase (Thermo-Fisher) solution to digest the Matrigel. After a 25-minute incubation at 37° C., the plate was placed on an orbital shaker for 5 minutes at 80 RPM. We then added 30 μL of CellTiter-Glo® reagent (Promega), sealed the plate with film, covered the plate with foil to protect from light, shook the plate for 5 minutes at 80 RPM, and incubated at room temperature for an additional 20 minutes. We used a SpectraMax iD3 plate reader to measure luminescence. The program parameters for luminescence readings were 5 minutes of shaking prior to reading, reading all wavelengths, and integrating signal over 500 ms. Organoid viability within each well was calculated by dividing the luminescent signal from each well by the mean luminescence of the control (1% DMSO) wells. Two-tailed independent t-tests were performed to assess the statistical significance of the differences in organoid mass and cell viability. P-values less than 0.05 were deemed significant.

[2] = test system: MCF-7 organoids; experiment: HSLCI mass tracking of bioprinted organoids in drug screening; assay type: cell-based; details: for Organoid Behavior (%) Stable / Organoid Behavior (%) Gained Mass / Organoid Behavior (%) Lost Mass: MCF-7 organoids; for Organoid Behavior (%) Stable: mass change <10%; for Organoid Behavior (%) Gained Mass: mass increase >10%; for Organoid Behavior (%) Lost Mass: mass loss >10%
[3] = in vivo; cited from earlier work
[4] = MCF-7, 72 h of treatment, luminescence relative to 1% DMSO control, read-out: Organoid viability by endpoint ATP assay, Viability ± SD
[5] = listed as printed as 6 hours, relative to 1% DMSO, read-out: Comparisons of cell viability measures by ATP detection assay, Mean mass ± SD

**Q.** Which viability at 0.1 µM [1, 4] does the source give for CS(=O)(=O)CCNCc1ccc(-c2ccc3ncnc(Nc4ccc(OCc5cccc(F)c5)c(Cl)c4)c3c2)o1 [Lapatinib, lapatinib] here?
**A.** The viability at 0.1 µM was 100 ± 3%.

**Q.** And the viability at 1 µM [1, 4]?
**A.** Its viability at 1 µM is 101 ± 4%.

**Q.** What about the viability at 10 µM [1, 4] of the same compound?
**A.** The viability at 10 µM was 66 ± 7%.

**Q.** What about the viability at 50 µM [1, 4] of the same compound?
**A.** Its viability at 50 µM is 14 ± 3%.

**Q.** And the viability at 0.1 µM [1, 5]?
**A.** The viability at 0.1 µM was 100 ± 3%.

**Q.** And the viability at 1 µM [1, 5]?
**A.** Its viability at 1 µM is 101 ± 4%.

**Q.** And the viability at 10 µM [1, 5]?
**A.** The viability at 10 µM was 66 ± 7%.

**Q.** What about the viability at 50 µM [1, 5] of the same compound?
**A.** Its viability at 50 µM is 14 ± 3%.

**Q.** And the “Mean mass of MCF-7 organoids, Mean mass ± SD” value (“Mean mass … Mean mass ± SD” for short) ([2]; 0.1 μM, 6 hours of treatment)?
**A.** Its value is 2.00 ± 1.43 ng.

**Q.** What about the “Mean mass … Mean mass ± SD” value ([2]; 0.1 μM, 48 hours of treatment) of the same compound?
**A.** Its value is 2.76 ± 2.35 ng.

**Q.** And the “Mean mass … Mean mass ± SD” value ([2]; 1 μM, 6 hours of treatment)?
**A.** The value was 2.20 ± 1.33 ng.

**Q.** What about the “Mean mass … Mean mass ± SD” value ([2]; 1 μM, 48 hours of treatment) of the same compound?
**A.** The value was 2.71 ± 2.09 ng.

**Q.** What about the “Mean mass … Mean mass ± SD” value ([2]; 10 μM, 6 hours of treatment) of the same compound?
**A.** The value was 2.30 ± 1.48 ng.

**Q.** And the “Mean mass … Mean mass ± SD” value ([2]; 10 μM, 48 hours of treatment)?
**A.** Its value is 2.46 ± 1.90 ng.

**Q.** And the “Mean mass … Mean mass ± SD” value ([2]; 50 μM, 6 hours of treatment)?
**A.** Its value is 1.71 ± 0.84 ng.

**Q.** And the “Mean mass … Mean mass ± SD” value ([2]; 50 μM, 48 hours of treatment)?
**A.** The value was 1.32 ± 1.03 ng.

**Q.** And the “Mean mass … Mean mass ± SD” value ([2]; 50 μM, 48 hours of treatment, listed as lapatinib)?
**A.** The value was 1.32 ± 1.06 ng.

**Q.** What about the “Organoid Behavior (%) Stable” value ([2]; 0.1 μM, 12 h) of the same compound?
**A.** Its value is 73.5%.

**Q.** And the “Organoid Behavior (%) Gained Mass” value ([2]; 0.1 μM, 12 h)?
**A.** The value was 17.6%.

**Q.** And the “Organoid Behavior (%) Lost Mass” value ([2]; 0.1 μM, 12 h)?
**A.** The value was 8.8%.

**Q.** What about the “Organoid Behavior (%) Stable” value ([2]; 0.1 μM, 24 h) of the same compound?
**A.** Its value is 56.3%.

**Q.** And the “Organoid Behavior (%) Gained Mass” value ([2]; 0.1 μM, 24 h)?
**A.** The value was 28.1%.

**Q.** And the “Organoid Behavior (%) Lost Mass” value ([2]; 0.1 μM, 24 h)?
**A.** Its value is 15.6%.

**Q.** And the “Organoid Behavior (%) Stable” value ([2]; 0.1 μM, 48 h)?
**A.** The value was 34.4%.

**Q.** And the “Organoid Behavior (%) Gained Mass” value ([2]; 0.1 μM, 48 h)?
**A.** Its value is 46.9%.

**Q.** And the “Organoid Behavior (%) Lost Mass” value ([2]; 0.1 μM, 48 h)?
**A.** Its value is 18.8%.

**Q.** What about the “Organoid Behavior (%) Stable” value ([2]; 1 μM, 12 h) of the same compound?
**A.** Its value is 88.2%.

**Q.** And the “Organoid Behavior (%) Gained Mass” value ([2]; 1 μM, 12 h)?
**A.** Its value is 8.8%.

**Q.** And the “Organoid Behavior (%) Lost Mass” value ([2]; 1 μM, 12 h)?
**A.** Its value is 2.9%.

**Q.** What about the “Organoid Behavior (%) Stable” value ([2]; 1 μM, 24 h) of the same compound?
**A.** The value was 45.2%.

**Q.** And the “Organoid Behavior (%) Gained Mass” value ([2]; 1 μM, 24 h)?
**A.** Its value is 45.2%.

**Q.** And the “Organoid Behavior (%) Lost Mass” value ([2]; 1 μM, 24 h)?
**A.** Its value is 9.7%.

**Q.** And the “Organoid Behavior (%) Stable” value ([2]; 1 μM, 48 h)?
**A.** Its value is 26.3%.

**Q.** And the “Organoid Behavior (%) Gained Mass” value ([2]; 1 μM, 48 h)?
**A.** The value was 55.3%.

**Q.** And the “Organoid Behavior (%) Lost Mass” value ([2]; 1 μM, 48 h)?
**A.** The value was 18.4%.

**Q.** What about the “Organoid Behavior (%) Stable” value ([2]; 10 μM, 12 h) of the same compound?
**A.** The value was 84.1%.

**Q.** What about the “Organoid Behavior (%) Gained Mass” value ([2]; 10 μM, 12 h) of the same compound?
**A.** Its value is 6.8%.

**Q.** And the “Organoid Behavior (%) Lost Mass” value ([2]; 10 μM, 12 h)?
**A.** Its value is 9.1%.

**Q.** What about the “Organoid Behavior (%) Stable” value ([2]; 10 μM, 24 h) of the same compound?
**A.** Its value is 56.5%.

**Q.** And the “Organoid Behavior (%) Gained Mass” value ([2]; 10 μM, 24 h)?
**A.** Its value is 26.1%.

**Q.** And the “Organoid Behavior (%) Lost Mass” value ([2]; 10 μM, 24 h)?
**A.** The value was 17.4%.

**Q.** What about the “Organoid Behavior (%) Stable” value ([2]; 10 μM, 48 h) of the same compound?
**A.** The value was 32.4%.

**Q.** What about the “Organoid Behavior (%) Gained Mass” value ([2]; 10 μM, 48 h) of the same compound?
**A.** Its value is 32.4%.

**Q.** And the “Organoid Behavior (%) Stable” value ([2]; 50 μM, 12 h)?
**A.** Its value is 58.6%.

**Q.** And the “Organoid Behavior (%) Gained Mass” value ([2]; 50 μM, 12 h)?
**A.** Its value is 6.9%.

**Q.** What about the “Organoid Behavior (%) Stable” value ([2]; 50 μM, 24 h) of the same compound?
**A.** The value was 39.3%.

**Q.** What about the “Organoid Behavior (%) Gained Mass” value ([2]; 50 μM, 24 h) of the same compound?
**A.** The value was 14.3%.

**Q.** What about the “Organoid Behavior (%) Lost Mass” value ([2]; 50 μM, 24 h) of the same compound?
**A.** Its value is 46.4%.

**Q.** What about the “Organoid Behavior (%) Stable” value ([2]; 50 μM, 48 h) of the same compound?
**A.** The value was 43.5%.

**Q.** And the “Organoid Behavior (%) Gained Mass” value ([2]; 50 μM, 48 h)?
**A.** The value was 4.3%.

**Q.** What about the “Organoid Behavior (%) Lost Mass” value ([2]; 50 μM, 48 h) of the same compound?
**A.** The value was 52.2%.

**Q.** And the “maximum plasma concentration reported” value [3]?
**A.** The value was 4.2 µM.
